Results taken from patent US8846638B2, “Macrocyclic nucleoside phosphoramidate derivatives” (Enanta Pharmaceuticals, Inc., priority 2012, dated 2014).

Assays:
[1] = system: HCV 1b genotype replicon (strain Con1, SGR 11-7 cell line); assay: HCV replicon assay, qRT-PCR, genotype 1b (SGR 11-7 cells); assay type: cell-based; conditions: Hepatitis C virus; Genotype-1b replicon, HCV RNA by qRT-PCR normalized to GAPDH RNA
From the text: (§1) HCV replicon cell lines (kindly provided by R. Bartenschlager) isolated from colonies as described by Lohman et al. (Lohman et al. (1999) Science 285: 110-113, expressly incorporated by reference in its entirety) and used for all experiments. One of the HCV replicon cell lines (strain Con1, genotype 1b) has the nucleic acid sequence set forth in EMBL Accession No.: AJ242651, the coding sequence of which is from nucleotides 1801 to 8406. Another replicon cell line (strain H77, genotype 1a) was constructed as described by Yi et. al. (Yi et. al. (2004) Journal of Virology 78(15):7904-15). The coding sequences of the published HCV replicons were synthesized and subsequently assembled in plasmids using standard molecular biology techniques.
(§2) One replicon cell line (“SGR 11-7”) stably expresses HCV replicon RNA, genotype 1b, which consists of (i) the HCV 5′UTR fused to the first 12 amino acids of the capsid protein, (ii) the neomycin phosphotransferase gene (neo), (iii) the IRES from encephalomyocarditis virus (EMCV) and (iv) HCV […] to NS5B genes and the HCV 3′UTR. Another replicon cell line (“Huh-1a7”) described by Yi et. al. (Yi et. al. (2004) Journal of Virology 78(15):7904-15, expressly incorporated by reference in its entirety) stably expresses HCV replicon RNA, genotype 1a, which consists of (i) the HCV 5′UTR fused to the first 12 amino acids of the capsid protein, (ii) the HIV tat protein, (iii) the neomycin phosphotransferase gene (neo), (iv) the IRES from encephalomyocarditis virus (EMCV) and (vi) HCV NS3 to NS5B genes that harbor cell culture adaptive mutations (Q1067R, K1691R, S2204I) and the HCV 3′UTR.
(§3) These cell lines are maintained at 37° C., 5% CO2, 100% relative humidity in DMEM (Cat#11965-084, Invitrogen), with 10% fetal calf serum (“FCS”, Invitrogen), 1% non-essential amino acids (Invitrogen), 1% of Glutamax (Invitrogen), 1% of 10× penicillin/streptomycin (Cat#15140-122, Invitrogen) and Geneticin (Cat#10131-027, Invitrogen) at 0.75 mg/ml or 0.25 mg/ml for 11-7 and Huh-1a7 cells, respectively.
(§4) EC50 values of single agent compounds were determined by HCV RNA detection using quantitative RT-PCR, according to the manufacturer's instructions, with a TAQMAN® One-Step RT-PCR Master Mix Reagents Kit (Cat#AB 4309169, Applied Biosystems) on an ABI Model 7500 thermocycler. EC50 values of combinations are similarly determined by HCV RNA detection using quantitative RT-PCR. The TAQMAN primers to use for detecting and quantifying HCV RNA obtained from Integrated DNA Technologies. HCV RNA is normalized to GAPDH RNA levels in drug-treated cells, which is detected and quantified using the Human GAPDH Endogenous Control Mix (Applied Biosystems, AB 4310884E). Total cellular RNA is purified from 96-well plates using the RNAqueous 96 kit (Ambion, Cat#AM1812). Chemical agent cytotoxicity is evaluated using an MTS assay according to the manufacturer's directions (Promega).
(§5) The compounds of the present invention can be effective against the HCV 1a and 1b genotypes. It should also be understood that the compounds of the present invention can inhibit multiple genotypes of HCV. In one embodiment, compounds of the present invention are active against the 1a, 1b, 2a, 2b, 3a, 4a, and 5a genotypes. […] EC50 ranges against HCV 1a or 1b are as follows: A>1 μM; B 0.1-1 μM; C<0.1 μM.

[2] = system: HCV 1a genotype replicon (strain H77, Huh-1a7 cell line); assay: HCV replicon assay, qRT-PCR, genotype 1a (Huh-1a7 cells); assay type: cell-based; conditions: Hepatitis C virus; Genotype-1a replicon, HCV RNA by qRT-PCR normalized to GAPDH RNA
From the text: as §1, §2, §3, §4, §5

SMILES	EC50 [1]	EC50 [2]
C[C@@H]1NP(=O)(Oc2ccccc2)OCC2OC(n3cnc4c(nc(N)nc43)OCCCCCCCOC1=O)[C@](C)(O)[C@@H]2O (stereo partly shown) [Example 8]	0.1 to 1 µM	0.1 to 1 µM
C[C@@H]1NP(=O)(Oc2cccc3ccccc23)OCC2OC(n3cnc4c(nc(N)nc43)OCCCCCCCOC1=O)[C@](C)(O)[C@@H]2O (stereo partly shown) [Example 3]	0.1 to 1 µM	< 0.1 µM
C[C@@H]1NP(=O)(Oc2cccc3ccccc23)OCC2OC(n3cnc4c(nc(N)nc43)OCCCCC(F)(F)COC1=O)[C@](C)(O)[C@@H]2O (stereo partly shown) [Example 2]	0.1 to 1 µM	0.1 to 1 µM
C[C@@H]1NP(=O)(Oc2cccc3ccccc23)OCC2OC(n3cnc4c(nc(N)nc43)OCCCCCOCCCOC1=O)[C@](C)(O)[C@@H]2O (stereo partly shown) [Example 5]	> 1 µM	0.1 to 1 µM
C[C@@H]1NP(=O)(Oc2ccccc2)OCC2OC(n3cnc4c(nc(N)nc43)OCCCCCCCCOC1=O)[C@](C)(O)[C@@H]2O (stereo partly shown) [Example 9]	0.1 to 1 µM	0.1 to 1 µM
CC(C)C[C@@H]1NP(=O)(Oc2cccc3ccccc23)OCC2OC(n3cnc4c(nc(N)nc43)OCCCCCCCOC1=O)[C@](C)(O)[C@@H]2O (stereo partly shown) [Example 4]	> 1 µM	0.1 to 1 µM
C[C@@H]1NP(=O)(Oc2cccc3ccccc23)OCC2OC(n3cnc4c(nc(N)nc43)OCCCCCCOC1=O)[C@](C)(O)[C@@H]2O (stereo partly shown) [Example 7]	0.1 to 1 µM	< 0.1 µM
C[C@@H]1NP(=O)(Oc2cccc3ccccc23)OCC2OC(n3cnc4c(nc(N)nc43)OCCC=CCCCOC1=O)[C@](C)(O)[C@@H]2O (stereo partly shown) [Example 10]	0.1 to 1 µM	0.1 to 1 µM
